Measured values published in ChEMBL document CHEMBL1150991, “Comparative molecular field analysis of benzopyran-4-carbothioamide potassium channel openers” (Bioorg Med Chem Lett, 1994).

Key:
[1] = species on record: Rattus norvegicus; assay: Molar concentration required to relax rat aorta precontracted with 30 mM KCL by 50% of intrinsic activity (calculated); type: functional
[2] = species on record: Rattus norvegicus; assay: Molar concentration required to relax rat aorta precontracted with 30 mM KCL by 50% of intrinsic activity; type: functional

## C/N=C(/S)C1=CC(C)(C)Oc2ccc(Cl)cc21
[1]
  EC50: 28.8 nM

## C/N=C(/S)C1=CC(C)(C)Oc2ccc(C(F)(F)C(F)(F)F)cc21
[1]
  EC50: 11.7 nM

## C/N=C(/S)C1=CC(C)(C)Oc2ccc([N+](=O)[O-])cc21
[1]
  EC50: 1.29 nM

## C/N=C(/S)C1=CC(C)(C)Oc2ccc(S(C)(=O)=O)cc21
[1]
  EC50: 490 nM

## CNC(=S)C1=CC(C)(C)Oc2ccc(C(=O)OC)cc21
[1]
  EC50: 85.1 nM
[2]
  EC50: 95.5 nM

## CCc1ccc2c(c1)C(/C(S)=N\C)=CC(C)(C)O2
[1]
  EC50: 282 nM

## C/N=C(/S)C1=CC(C)(C)Oc2ccccc21
[1]
  EC50: 4470 nM

## C/N=C(/S)C1=CC(C)(C)Oc2ccc(OC(F)(F)F)cc21
[1]
  EC50: 3.98 nM

## C/N=C(/S)C1=CC(C)(C)Oc2ccc(Br)cc21
[1]
  EC50: 15.1 nM

## C/N=C(/S)C1=CC(C)(C)Oc2ccc(C#N)cc21
[1]
  EC50: 21.4 nM

## C/N=C(/S)C1=CC(C)(C)Oc2ccc(C(F)(F)F)cc21
[1]
  EC50: 2.19 nM

## C/N=C(/S)C1=CC(C)(C)Oc2ccc(S(=O)(=O)c3ccccc3)cc21
[1]
  EC50: 19.5 nM

## CNC(=S)C1=CC(C)(C)Oc2ccc(OC)cc21
[1]
  EC50: 457 nM
